# Experimental data published in article PMC11992225, “Antibacterial compounds against non-growing and intracellular bacteria” (npj Antimicrobials and Resistance, 2025).
# Where “and” joins values, the source holds several entries; their conditions need not be identical. Equal entries are not always repeated. Where two headings read alike, the source gives them in different places.
# What was measured:
# [1] = system: S. aureus DSM2569; assay: MIC, standard microdilution assay, growing S. aureus; type: cell-based, Staphylococcus aureus; conditions: Staphylococcus aureus, DSM2569; S. aureus; CA-MHB pH 7.4; read-out: MIC (μM) CA-MHB
# Method in brief: (§1)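 MICs come from microdilution in CA-MHB/40 mM HEPES pH 7.4 for the UPEC, Pseudomonas and Staphylococcus strains, and in TSB for Shigella. UPEC also tested in LPM/30 mM MES pH 5.5.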
# [2] = system: intracellular S. flexneri 5a M90T in TC7 cells; assay: microbe, parasite or virus in culture; type: cell-based, Shigella flexneri
# [3] = system: E. coli CFT073 (UPEC); assay: MIC, standard microdilution assay, growing UPEC; type: cell-based, Escherichia coli; conditions: Escherichia coli, E. coli
# Method in brief: as §1
# [4] = system: non-growing UPEC CFT073; assay: Dose-dependent killing analysis (CFU spot-plating) of stationary-phase UPEC; type: cell-based, Escherichia coli
# Method in brief: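 Non-growing (stationary-phase) UPEC CFT073 treated with compounds in 96-well format at 200 μl, then 10-fold serially diluted in PBS and 10 μl spots plated on LB agar. Plates incubated overnight at 37 °C; colonies counted at lowest resolvable dilution to give CFU. Three biological replicates.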
smiles,measurement,setting,value
CO[C@H]1/C=C/O[C@@]2(C)Oc3c(C)c(O)c4c(O)c(c(/C=N/N5CCN(C6CCCC6)CC5)c(O)c4c3C2=O)NC(=O)/C(C)=C\C=C\[C@H](C)[C@H](O)[C@@H](C)[C@@H](O)[C@@H](C)[C@H](OC(C)=O)[C@@H]1C [Rifapentine],MIC,[1],0.0125 µM
same,IC50,"[2]; Shigella flexneri, TC7, 14 h",3.09 µM
same,"Fluorescence intensity (RFU), Mean, 0.0625 x MIC","[2]; TC7 cells infected with GFP-expressing S. flexneri, 14 h treatment, 0.0625 x MIC",10012.8 RFU
same,"Fluorescence intensity (RFU), Mean, 0.125 x MIC","[2]; TC7 cells infected with GFP-expressing S. flexneri, 14 h treatment, 0.125 x MIC",10655.7 RFU
same,"Fluorescence intensity (RFU), Mean, 0.25 x MIC","[2]; TC7 cells infected with GFP-expressing S. flexneri, 14 h treatment, 0.25 x MIC",3668.46 RFU
same,"Fluorescence intensity (RFU), Mean, 0.5 x MIC","[2]; TC7 cells infected with GFP-expressing S. flexneri, 14 h treatment, 0.5 x MIC",1616.31 RFU
same,"Fluorescence intensity (RFU), Mean, 2 x MIC","[2]; TC7 cells infected with GFP-expressing S. flexneri, 14 h treatment, 2 x MIC",1321.39 RFU
same,"Fluorescence intensity (RFU), Mean, 4 x MIC","[2]; TC7 cells infected with GFP-expressing S. flexneri, 14 h treatment, 4 x MIC",1243.06 RFU
same,"Fluorescence intensity (RFU), Mean, 8 x MIC","[2]; TC7 cells infected with GFP-expressing S. flexneri, 14 h treatment, 8 x MIC",1167.19 RFU
same,"Fluorescence intensity (RFU), Mean, 16 x MIC","[2]; TC7 cells infected with GFP-expressing S. flexneri, 14 h treatment, 16 x MIC",915.083 RFU
same,"Fluorescence intensity (RFU), Mean, MIC","[2]; TC7 cells infected with GFP-expressing S. flexneri, 14 h treatment, MIC",1458.03 RFU
same,MIC,"[3]; LPM pH 5.5, read-out: MIC",0.25 µM
same,MIC,"[3]; pH 7.4, 1:4 diluted CA-MHB, read-out: MIC (μM) 1:4 CA-MHB",5 µM
same,MIC,"[3]; pH 7.4, CA-MHB, read-out: MIC (μM) CA-MHB",8 µM
same,"log10(CFU/ml) after treatment, single replicates","[4]; E. coli in 1:4 CA-MHB (pH 7.4), concentration 0.25",9.114 log10(CFU/ml) and 8.301 log10(CFU/ml) and 8.415 log10(CFU/ml)
same,Killing: average Δlog10(CFU/ml),"[4]; E. coli in 1:4 CA-MHB (pH 7.4), concentration 0.25, vs 8.977 before treatment",0.367 log10(CFU/ml)
same,"log10(CFU/ml) after treatment, single replicates","[4]; E. coli in 1:4 CA-MHB (pH 7.4), concentration 0.5",9.301 log10(CFU/ml) and 8.778 log10(CFU/ml) and 8.380 log10(CFU/ml)
same,Killing: average Δlog10(CFU/ml),"[4]; E. coli in 1:4 CA-MHB (pH 7.4), concentration 0.5, vs 8.977 before treatment",0.158 log10(CFU/ml)
same,"log10(CFU/ml) after treatment, single replicates","[4]; E. coli in 1:4 CA-MHB (pH 7.4), concentration 1",9.079 log10(CFU/ml) and 8.602 log10(CFU/ml) and 8.342 log10(CFU/ml)
same,Killing: average Δlog10(CFU/ml),"[4]; E. coli in 1:4 CA-MHB (pH 7.4), concentration 1, vs 8.977 before treatment",0.303 log10(CFU/ml)
same,"log10(CFU/ml) after treatment, single replicates","[4]; E. coli in 1:4 CA-MHB (pH 7.4), concentration 2.5",9.176 log10(CFU/ml) and 9.204 log10(CFU/ml) and 8.845 log10(CFU/ml)
same,Killing: average Δlog10(CFU/ml),"[4]; E. coli in 1:4 CA-MHB (pH 7.4), concentration 2.5, vs 8.977 before treatment",-0.098 log10(CFU/ml)
same,"log10(CFU/ml) after treatment, single replicates","[4]; E. coli in 1:4 CA-MHB (pH 7.4), concentration 5",9.204 log10(CFU/ml) and 8.699 log10(CFU/ml) (2×)
same,Killing: average Δlog10(CFU/ml),"[4]; E. coli in 1:4 CA-MHB (pH 7.4), concentration 5, vs 8.977 before treatment",0.110 log10(CFU/ml)
same,"log10(CFU/ml) after treatment, single replicates","[4]; E. coli in 1:4 CA-MHB (pH 7.4), concentration 10",9.114 log10(CFU/ml) and 8.362 log10(CFU/ml) and 8.204 log10(CFU/ml)
same,Killing: average Δlog10(CFU/ml),"[4]; E. coli in 1:4 CA-MHB (pH 7.4), concentration 10, vs 8.977 before treatment",0.417 log10(CFU/ml)
same,"log10(CFU/ml) after treatment, single replicates","[4]; E. coli in LPM (pH 5.5), concentration 0.25",7.000 log10(CFU/ml) and 6.519 log10(CFU/ml) and 7.613 log10(CFU/ml)
same,Killing: average Δlog10(CFU/ml),"[4]; E. coli in LPM (pH 5.5), concentration 0.25, vs 7.350 before treatment",0.307 log10(CFU/ml)
same,"log10(CFU/ml) after treatment, single replicates","[4]; E. coli in LPM (pH 5.5), concentration 0.5",6.954 log10(CFU/ml) and 6.699 log10(CFU/ml) and 7.531 log10(CFU/ml)
same,Killing: average Δlog10(CFU/ml),"[4]; E. coli in LPM (pH 5.5), concentration 0.5, vs 7.350 before treatment",0.289 log10(CFU/ml)
same,"log10(CFU/ml) after treatment, single replicates","[4]; E. coli in LPM (pH 5.5), concentration 1",6.778 log10(CFU/ml) and 6.602 log10(CFU/ml) and 7.613 log10(CFU/ml)
same,Killing: average Δlog10(CFU/ml),"[4]; E. coli in LPM (pH 5.5), concentration 1, vs 7.350 before treatment",0.353 log10(CFU/ml)
same,"log10(CFU/ml) after treatment, single replicates","[4]; E. coli in LPM (pH 5.5), concentration 2.5",7.079 log10(CFU/ml) and 6.447 log10(CFU/ml) and 7.491 log10(CFU/ml)
same,Killing: average Δlog10(CFU/ml),"[4]; E. coli in LPM (pH 5.5), concentration 2.5, vs 7.350 before treatment",0.344 log10(CFU/ml)
same,"log10(CFU/ml) after treatment, single replicates","[4]; E. coli in LPM (pH 5.5), concentration 5",7.204 log10(CFU/ml) and 6.845 log10(CFU/ml) and 7.301 log10(CFU/ml)
same,Killing: average Δlog10(CFU/ml),"[4]; E. coli in LPM (pH 5.5), concentration 5, vs 7.350 before treatment",0.234 log10(CFU/ml)
same,"log10(CFU/ml) after treatment, single replicates","[4]; E. coli in LPM (pH 5.5), concentration 10",6.778 log10(CFU/ml) and 7.041 log10(CFU/ml) and 7.204 log10(CFU/ml)
same,Killing: average Δlog10(CFU/ml),"[4]; E. coli in LPM (pH 5.5), concentration 10, vs 7.350 before treatment",0.342 log10(CFU/ml)
